Experimental data: US9353072B2, “Antimicrobial substituted thiazoles and methods of use” (Purdue Research Foundation, priority 2012, dated 2016)
Values after ≈ are worked out from the molar mass of the structure shown. Like-named read-outs stand apart in the source and are kept apart here.

What was measured:
[1] = test system: MRSA ATCC 700699 (NRS1, VISA); test: MIC/MBC broth microdilution, NRS1 (ATCC 700699); format: cell-based; details: Staphylococcus aureus
Procedure: (§1) Determination of minimum inhibitory concentration (MIC). The MICs of the lead thiazole compound (compound 1a) and nine derivatives tested against all 18 MRSA strains were determined, in triplicate samples, using the broth microdilution method in accordance with the recommendations contained in the CLSI guidelines.

VISA HIP07256 (NRS19) = test: MIC/MBC broth microdilution, NRS19 (VISA HIP07256); format: cell-based; details: Staphylococcus aureus
Procedure: as §1

MRSA USA400 (NRS123) = test: MIC/MBC broth microdilution, NRS123 (USA400); format: cell-based; details: Staphylococcus aureus
Procedure: as §1

MRSA NRS384 (USA300) = test: MIC/MBC broth microdilution, NRS384 (USA300); format: cell-based; details: Staphylococcus aureus
Procedure: as §1

MRSA USA500 (NRS385) = test: MIC/MBC broth microdilution, NRS385 (USA500); format: cell-based; details: Staphylococcus aureus
Procedure: as §1

MRSA ATCC 43300 = test: MIC/MBC broth microdilution, MRSA ATCC 43300; format: cell-based, Staphylococcus aureus; details: Staphylococcus aureus
Procedure: as §1

VISA LIM 3 (NRS37) = test: MIC/MBC broth microdilution, NRS37 (VISA LIM 3); format: cell-based; details: Staphylococcus aureus, Table 8, NRS37 (VISA); for MIC: read-out: MIC
Procedure: as §1

NRS107 = test: MIC/MBC broth microdilution, NRS107; format: cell-based; details: Staphylococcus aureus; for MIC: Table 8, read-out: MIC
Procedure: as §1

NRS119 = test: MIC/MBC broth microdilution, NRS119; format: cell-based; details: Staphylococcus aureus, Table 8, NRS119; for MIC: read-out: MIC
Procedure: as §1

NRS194 = test: MIC/MBC broth microdilution, NRS194; format: cell-based; details: Staphylococcus aureus; for MIC: Table 8, read-out: MIC
Procedure: as §1

[2] = Table 6, MRSA ATCC 43300, 128 μM down to 1.0 μM, 20 hours, read-out: MIC
[3] = Table 8, ATCC 43300, read-out: MIC
[4] = Table 8, NRS1 (VISA), triplicates, 20 hours, read-out: MIC
[5] = Table 8, NRS19 (VISA), read-out: MIC

SMILES	MIC (MRSA ATCC 43300; [2]) [µM]	MIC (MRSA ATCC 43300; [3]) [µM]	MIC [1, 4] [µM]	MIC (VISA HIP07256 (NRS19); [5]) [µM]	MIC (VISA LIM 3 (NRS37)) [µM]	MIC (NRS107) [µM]	MIC (NRS119) [µM]	MIC (MRSA USA400 (NRS123); Table 8, NRS123, read-out: MIC) [µM]	MIC (NRS194) [µM]	MIC (MRSA NRS384 (USA300); Table 8, NRS384, read-out: MIC) [µM]	MIC (MRSA USA500 (NRS385); Table 8, NRS385, read-out: MIC) [µM]	further results
CCCCCCCCCc1ccc(-c2nc(C)c(/C(C)=N/NC(=N)N)s2)cc1 [Compound 1f]												MIC ([1]; Table 2, MRSA ATCC 700699, read-out: Minimum Inhibitory Concentration): 1.1 µg/mL; MIC (VISA HIP07256 (NRS19); Table 2, VISA HIP07256, read-out: Minimum Inhibitory Concentration): 2.2 µg/mL; MIC (MRSA USA400 (NRS123); Table 2, MRSA USA400, read-out: Minimum Inhibitory Concentration): 4.4 µg/mL; MIC (MRSA NRS384 (USA300); Table 2, MRSA USA300, read-out: Minimum Inhibitory Concentration): 2.2 µg/mL; MIC (MRSA USA500 (NRS385); Table 2, MRSA USA500, read-out: Minimum Inhibitory Concentration): 4.4 µg/mL
CCCCc1ccc(-c2nc(C)c(/C(C)=N/NC(=N)N/N=C(\C)c3sc(-c4ccc(CCCC)cc4)nc3C)s2)cc1 [Compound M1]	> 128											
C/C(=N\NC(=N)N)c1sc(-c2ccc(N)cc2)nc1C [Compound M2, (E)-2-(1-(2-(4-aminophenyl)-4-methylthiazol-5-yl)ethylidene)hydrazinecarboximidamide]	> 128	128 (≈ 36.9 µg/mL)	64	128	64 (≈ 18.5 µg/mL)	64 (≈ 18.5 µg/mL)	64 (≈ 18.5 µg/mL)	128	128 (≈ 36.9 µg/mL)	128	128	MBC (MRSA ATCC 43300; Table 8, ATCC 43300, read-out: MBC): 128 µM (≈ 36.9 µg/mL); MBC ([1]; Table 8, NRS1 (VISA), read-out: MBC): 128 µM (≈ 36.9 µg/mL); MBC (VISA HIP07256 (NRS19); Table 8, NRS19 (VISA), read-out: MBC): 128 µM (≈ 36.9 µg/mL); MBC (VISA LIM 3 (NRS37); read-out: MBC): 128 µM (≈ 36.9 µg/mL); MBC (NRS107; Table 8, read-out: MBC): 64 µM (≈ 18.5 µg/mL); MBC (NRS119; read-out: MBC): 64 µM (≈ 18.5 µg/mL); MBC (MRSA USA400 (NRS123); Table 8, NRS123, read-out: MBC): 128 µM (≈ 36.9 µg/mL); MBC (NRS194; Table 8, read-out: MBC): 128 µM (≈ 36.9 µg/mL); MBC (MRSA NRS384 (USA300); Table 8, NRS384, read-out: MBC): 128 µM (≈ 36.9 µg/mL); MBC (MRSA USA500 (NRS385); Table 8, NRS385, read-out: MBC): 128 µM (≈ 36.9 µg/mL)
C/C(=N\NC(=N)N/N=C(\C)c1sc(-c2ccc(N)cc2)nc1C)c1sc(-c2ccc(N)cc2)nc1C [Compound M3]	> 128											
CC(=O)c1sc(-c2ccc(-c3ccc(O)cc3)cc2)nc1C [Compound M4, 1-(2-(4′-hydroxy-[1,1′-biphenyl]-4-yl)-4-methylthiazol-5-yl)ethanone]	> 128											
C/C(=N/NC(=N)N)c1sc(-c2ccc(-c3ccc(O)cc3)cc2)nc1C [Compound M5, (Z)-2-(1-(2-(4′-hydroxy-[1,1′-biphenyl]-4-yl)-4-methylthiazol-5-yl)ethylidene)hydrazinecarboximidamide]	> 128											
CC(=O)c1sc(-c2ccc(-c3cccc4ccccc34)cc2)nc1C [Compound M6, 1-(4-methyl-2-(4-(naphthalen-1-yl)phenyl)thiazol-5-yl)ethanone]	> 128	> 128	> 128	> 128	> 128	> 128	> 128	> 128	> 128	> 128	> 128	
CC(=O)c1sc(-c2ccc(-c3cc(C)cc(C)c3)cc2)nc1C [Compound M7, 1-(2-(3′,5′-dimethyl-[1,1′-biphenyl]-4-yl)-4-methylthiazol-5-yl)ethanone]	> 128											
CC(=O)c1sc(-c2ccc(-c3ccc(F)cc3)cc2)nc1C [Compound M8, 1-(2-(4′-fluoro-[1,1′-biphenyl]-4-yl)-4-methylthiazol-5-yl)ethanone]	> 128	> 128	> 128	> 128	> 128	> 128	> 128	> 128	> 128	> 128	> 128	
CC(=O)c1ccc(-c2ccc(-c3nc(C)c(C(C)=O)s3)cc2)cc1 [Compound M9, 1-(4′-(5-acetyl-4-methylthiazol-2-yl)-[1,1′-biphenyl]-4-yl)ethanone]	> 128	> 128	> 128	> 128	> 128	> 128	> 128	> 128	> 128	> 128	> 128	
CC(=O)c1sc(-c2ccc(-c3ccc(C(F)(F)F)cc3)cc2)nc1C [Compound M10, 1-(4-methyl-2-(4′-(trifluoromethyl)-[1,1′-biphenyl]-4-yl)thiazol-5-yl)ethanone]	> 128	> 128	> 128	> 128	> 128	> 128	> 128	> 128	> 128	> 128	> 128	
CC(=O)c1sc(-c2cccc(F)c2)nc1C [Compound M15, 1-(2-(3-fluorophenyl)-4-methylthiazol-5-yl)ethanone]												MIC (MRSA ATCC 43300; 20 h): > 128 µM
CCCCCCCC#Cc1ccc(-c2nc(C)c(/C(C)=N\NC(=N)N/N=C(\C)c3sc(-c4ccc(C#CCCCCCCC)cc4)nc3C)s2)cc1 [Compound M18]												MIC (MRSA ATCC 43300; 20 h): > 128 µM
